In PubChem BioAssay AID330 (DTP/NCI, 2004):
Values joined by “and” are separate entries in the source; they are usually repeats but may differ in a detail not shown here. Equal entries are not always repeated. Toxic doses and inconclusive results are not listed. How the source made its calls: active means survival T/C of 150% or more; inactive means T/C below 125% in these data.

System: P388 leukemia ip, CD2F1 mice, survival T/C
Assay: NCI In Vivo Anticancer Drug Screen. Data for tumor model P388 Leukemia (intraperitoneal) in CD2F1 (CDF1) mice
Details: endpoint: median survival time, higher = longer survival
Procedure, shortened: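 Mice carrying the transplanted tumor received test compound or vehicle. Survival was recorded in each group, and the value is the treated-group measurement divided by that of the vehicle-treated control group.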

[1] = dose: 100.0 mg/kg/injection, schedule: Q01DX001 (ip), vehicle: saline with Tween-80
[2] = dose: 60.0 mg/kg/injection, schedule: Q01DX005 (ip), vehicle: saline with Tween-80
[3] = dose: 120.0 mg/kg/injection, schedule: Q01DX005 (ip), vehicle: saline with Tween-80
[4] = dose: 240.0 mg/kg/injection, schedule: Q01DX005 (ip), vehicle: saline with Tween-80
[5] = dose: 100.0 mg/kg/injection, schedule: Q01DX009 (ip), vehicle: saline with Tween-80
[6] = dose: 200.0 mg/kg/injection, schedule: Q01DX009 (ip), vehicle: saline with Tween-80
[7] = dose: 400.0 mg/kg/injection, schedule: Q01DX009 (ip), vehicle: saline with Tween-80

Measured: T/C

O=C1C(Cl)=C(NC(CO)(CO)CO)C(=O)c2ccccc21
inactive: dose: 25.0 mg/kg/injection, schedule: Q01DX001 (ip), vehicle: saline with Tween-80 92 % of control | dose: 50.0 mg/kg/injection, schedule: Q01DX001 (ip), vehicle: saline with Tween-80 93 % of control | [1] 101 % of control

CSC1(C)C(=O)Nc2cccc([N+](=O)[O-])c21 (stereo not given)
inactive: [1] 100 % of control | dose: 200.0 mg/kg/injection, schedule: Q01DX001 (ip), vehicle: saline with Tween-80 93 % of control | dose: 400.0 mg/kg/injection, schedule: Q01DX001 (ip), vehicle: saline with Tween-80 100 % of control

CSc1nc2c(nnn2C2OCC(O)C(O)C2O)c(=O)n1C (stereo not given)
inactive: [2] 102 % of control | [3] 99 % of control | [4] 96 % of control

N#Cc1cc2cc3c4c(c2oc1=O)CCCN4CCC3
inactive: dose: 50.0 mg/kg/injection, schedule: Q01DX005 (ip), vehicle: Klucel (hydroxypropylcellulose) (HPC) 95 % of control | dose: 100.0 mg/kg/injection, schedule: Q01DX005 (ip), vehicle: Klucel (hydroxypropylcellulose) (HPC) 94 % of control | dose: 200.0 mg/kg/injection, schedule: Q01DX005 (ip), vehicle: Klucel (hydroxypropylcellulose) (HPC) 95 % of control

O=C(O)C(=O)O.[NH-]CC[NH-].[Pt+2]
inactive: dose: 3.12 mg/kg/injection, schedule: Q04DX002 (ip), vehicle: saline with Tween-80 117 % of control

Cc1onc(-c2ccccc2)c1C(=O)c1ccccc1
inactive: dose: 50.0 mg/kg/injection, schedule: Q01DX009 (ip), vehicle: saline 99 % of control | dose: 100.0 mg/kg/injection, schedule: Q01DX009 (ip), vehicle: saline 100 % of control | dose: 200.0 mg/kg/injection, schedule: Q01DX009 (ip), vehicle: saline 99 % of control

CCCCOC(=O)CSSCC(=O)OCCCC
inactive: dose: 50.0 mg/kg/injection, schedule: Q04DX003 (ip), vehicle: saline with Tween-80 109 % of control | dose: 100.0 mg/kg/injection, schedule: Q04DX003 (ip), vehicle: saline with Tween-80 109 % of control | dose: 200.0 mg/kg/injection, schedule: Q04DX003 (ip), vehicle: saline with Tween-80 109 % of control

CCN(Cc1cccc(S(=O)(=O)O)c1)c1ccc(C(=C2C=CC(=[N+](CC)Cc3cccc(S(=O)(=O)O)c3)C=C2)c2ccc(O)cc2S(=O)(=O)O)cc1
inactive: [2] 107 % of control | [3] 98 % of control | [4] 107 % of control

CN=C(NC)c1ccc(NC(=O)c2cc(C)cc(C(=O)Nc3ccc(C(=NC)NC)cc3)c2)cc1
inactive: dose: 3.12 mg/kg/injection, schedule: Q01DX005 (ip), vehicle: saline with Tween-80 103 % of control | dose: 6.25 mg/kg/injection, schedule: Q01DX005 (ip), vehicle: saline with Tween-80 105 % of control | dose: 12.5 mg/kg/injection, schedule: Q01DX005 (ip), vehicle: saline with Tween-80 107 % of control

CS(=O)CC(Nc1ccccc1)c1ccccc1 (stereo not given)
inactive: dose: 60.0 mg/kg/injection, schedule: Q01DX005 (ip), vehicle: Klucel (hydroxypropylcellulose) (HPC) 108 % of control | dose: 120.0 mg/kg/injection, schedule: Q01DX005 (ip), vehicle: Klucel (hydroxypropylcellulose) (HPC) 95 % of control | dose: 240.0 mg/kg/injection, schedule: Q01DX005 (ip), vehicle: Klucel (hydroxypropylcellulose) (HPC) 87 % of control

Nc1nc(N)nc(N)n1
inactive: [5] 106 % of control | [6] 107 % of control | [7] 99 % of control | dose: 800.0 mg/kg/injection, schedule: Q01DX009 (ip), vehicle: saline with Tween-80 96 % of control

CC(C)(C)C(=O)C1C(=O)c2ccccc2C1=O
inactive: dose: 1.56 mg/kg/injection, schedule: Q04DX003 (ip), vehicle: Klucel (hydroxypropylcellulose) (HPC) 98 % of control | dose: 3.12 mg/kg/injection, schedule: Q04DX003 (ip), vehicle: Klucel (hydroxypropylcellulose) (HPC) 89 % of control

CC1(C)OC1(C)C
inactive: dose: 50.0 mg/kg/injection, schedule: Q01DX009 (ip), vehicle: saline with Tween-80 100 % of control | [5] 104 % of control | [6] 102 % of control | [7] 111 % of control

COc1cc(OC)c2cc(C(=O)c3ccc(C#N)cc3)c(=O)oc2c1
inactive: [2] 94 % of control | [3] 104 % of control | [4] 105 % of control

COc1cc2c(c(OC)c1OC)-c1ccc(SC)c(=O)cc1[C@@H](NC1OC(CO)C(O)C(O)C1O)CC2 (stereo not given in full)
inactive: dose: 3.12 mg/kg/injection, schedule: Q01DX009 (ip), vehicle: saline 107 % of control and 111 % of control | dose: 3.13 mg/kg/injection, schedule: Q01DX009 (ip), vehicle: saline 115 % of control | dose: 6.25 mg/kg/injection, schedule: Q01DX009 (ip), vehicle: saline 118 % of control [middle of 4 runs] | dose: 12.5 mg/kg/injection, schedule: Q01DX009 (ip), vehicle: saline 123 % of control | dose: 25.0 mg/kg/injection, schedule: Q01DX009 (ip), vehicle: saline 118 % of control and 122 % of control

CC(CN(C)C)C(/C=C/c1ccc(Cl)c(Cl)c1)=N\Nc1ccccc1 (stereo not given)
inactive: [2] 87 % of control | [3] 93 % of control | [4] 87 % of control

CC(=O)OC1CC(O)C23COC(O)C1C2CC(O)C1(C)C3C(=O)CC2(C)C(c3ccoc3)CC3OC321 (stereo not given)
inactive: dose: 0.25 mg/kg/injection, schedule: Q01DX009 (ip), vehicle: Klucel (hydroxypropylcellulose) (HPC) 103 % of control | dose: 0.5 mg/kg/injection, schedule: Q01DX009 (ip), vehicle: Klucel (hydroxypropylcellulose) (HPC) 99 % of control | dose: 1.0 mg/kg/injection, schedule: Q01DX009 (ip), vehicle: Klucel (hydroxypropylcellulose) (HPC) 111 % of control | dose: 2.0 mg/kg/injection, schedule: Q01DX009 (ip), vehicle: Klucel (hydroxypropylcellulose) (HPC) 90 % of control

COC(=O)[C@H](C)[C@@H]1CC[C@](C)(CCC2=C(C)CCCC2(C)C)OO1
inactive: dose: 4.38 mg/kg/injection, schedule: Q01DX005 (ip), vehicle: saline + Tween-80 + alcohol 93 % of control | dose: 8.75 mg/kg/injection, schedule: Q01DX005 (ip), vehicle: saline + Tween-80 + alcohol 100 % of control | dose: 17.5 mg/kg/injection, schedule: Q01DX005 (ip), vehicle: saline + Tween-80 + alcohol 94 % of control | dose: 35.0 mg/kg/injection, schedule: Q01DX005 (ip), vehicle: saline + Tween-80 + alcohol 107 % of control

O=c1c2ccccc2ncn1C12CC3CC(CC(C3)C1)C2
inactive: dose: 100.0 mg/kg/injection, schedule: Q04DX002 (ip), vehicle: Klucel (hydroxypropylcellulose) (HPC) 105 % of control | dose: 200.0 mg/kg/injection, schedule: Q04DX002 (ip), vehicle: Klucel (hydroxypropylcellulose) (HPC) 100 % of control | dose: 400.0 mg/kg/injection, schedule: Q04DX002 (ip), vehicle: Klucel (hydroxypropylcellulose) (HPC) 100 % of control
